From ChEMBL document CHEMBL5329205, “Development of novel quinoline-NO donor hybrids inducing human breast cancer cells apoptosis via inhibition of topoisomerase I” (Bioorg Med Chem, 2023)
Activity calls are given as the source filed them. No cut-off for these calls is given here.

Columns and labels:
MCF7 [1] = experiment: Induction of cell cycle arrest in human MCF7 cells assessed as G1 phase cells at 0.75 uM incubated for 24 hrs by PI/RNaseA staining based flow cytometry analysis (reference value: 66.08 %); format: functional
MCF7 [2] = experiment: Induction of cell cycle arrest in human MCF7 cells assessed as G2 phase cells at 1.5 uM incubated for 24 hrs by PI/RNaseA staining based flow cytometry analysis (reference value: 7.67 %); format: functional
MCF7 [3] = experiment: Induction of apoptosis in human MCF7 cells assessed as necrotic cells at 3 uM incubated for 48 hrs by Annexin-V/PI staining based flow cytometry analysis (reference value: 0.0%); format: functional
MCF7 [4] = experiment: Induction of cell cycle arrest in human MCF7 cells assessed as G1 phase cells at 3 uM incubated for 24 hrs by PI/RNaseA staining based flow cytometry analysis (reference value: 66.08 %); format: functional
MCF7 [5] = experiment: Induction of cell cycle arrest in human MCF7 cells assessed as S phase cells at 1.5 uM incubated for 24 hrs by PI/RNaseA staining based flow cytometry analysis (reference value: 22.2 %); format: functional
MCF7 [6] = experiment: Induction of apoptosis in human MCF7 cells assessed as boundary consolidation upto 3 uM incubated for 48 hrs by Hoechst-33342 staining based fluorescent microscopic analysis; format: functional, cell-based
MCF7 [7] = experiment: Induction of apoptosis in human MCF7 cells assessed as bright blue appearance of cells upto 3 uM incubated for 48 hrs by Hoechst-33342 staining based fluorescent microscopic analysis; format: functional, cell-based
MCF7 [8] = experiment: Antiproliferative activity against human MCF7 cells assessed as inhibition of cell growth incubated for 48 hrs by MTT assay; format: functional, cell-based; details: MCF7, 48 h
NCI/ADR-RES = experiment: Antiproliferative activity against human MCF7ADR cells assessed as inhibition of cell growth measured after 48 hrs by MTT assay; format: functional, cell-based
[9] = Cytotoxicity against human MCF-10A cells assessed as cell growth inhibition measured after 48 hrs by MTT assay; format: toxicity, cell-based
MCF7 [10] = experiment: Induction of apoptosis in human MCF7 cells assessed as early apoptotic cells at 1.5 uM incubated for 48 hrs by Annexin-V/PI staining based flow cytometry analysis (reference value: 0.3%); format: functional
MCF7 [11] = experiment: Induction of apoptosis in human MCF7 cells assessed as upregulation of cleaved caspase-3 expression incubated for 24 hrs by Western blot analysis; format: functional, cell-based; details: dose 1-4 µM
MCF7 [12] = experiment: Induction of apoptosis in human MCF7 cells assessed as viable cells at 1.5 uM incubated for 48 hrs by Annexin-V/PI staining based flow cytometry analysis (reference value: 99.7%); format: functional; details: read-out: Activity
MCF7 [13] = experiment: Induction of apoptosis in human MCF7 cells assessed as upregulation of Bad expression incubated for 24 hrs by Western blot analysis; format: functional, cell-based; details: dose 1-4 µM
MCF7 [14] = experiment: Antitumor activity against human MCF7 cells xenografted in BALB/c nude mouse assessed as reduction in tumor volume at 5 mg/kg, ip administered once every two days for 3 weeks; format: functional, organism-based
MCF7 [15] = experiment: Induction of cell cycle arrest in human MCF7 cells assessed as G2 phase cells at 0.75 uM incubated for 24 hrs by PI/RNaseA staining based flow cytometry analysis (reference value: 7.67 %); format: functional
MCF7 [16] = experiment: Induction of cell cycle arrest in human MCF7 cells assessed as G1 phase cells at 1.5 uM incubated for 24 hrs by PI/RNaseA staining based flow cytometry analysis (reference value: 66.08 %); format: functional
MCF7 [17] = experiment: Antitumor activity against human MCF7 cells xenografted in BALB/c nude mouse assessed as reduction in tumor weight at 10 mg/kg, ip administered once every two days for 3 weeks relative to control; format: functional; design: scale not given: the % may be the effect or the level left
[18] = Toxicity in BALB/c mouse xenografted with human MCF7 cells assessed as kidney damage at 5 mg/kg, ip administered once every two days for 3 weeks by H and E staining based microscopic analysis; format: organism-based; details: in vivo, 504 h
MCF7 [19] = experiment: Induction of cell cycle arrest in human MCF7 cells assessed as S phase cells at 3 uM incubated for 24 hrs by PI/RNaseA staining based flow cytometry analysis (reference value: 22.2 %); format: functional
MCF7 [20] = experiment: Induction of cell cycle arrest in human MCF7 cells assessed as G2 phase cells at 3 uM incubated for 24 hrs by PI/RNaseA staining based flow cytometry analysis (reference value: 7.67 %); format: functional
HCT-116 = experiment: Antiproliferative activity against human HCT-116 cells assessed as inhibition of cell growth incubated for 48 hrs by MTT assay; format: functional, cell-based; details: HCT-116, 48 h
A549 = experiment: Antiproliferative activity against human A549 cells assessed as inhibition of cell growth incubated for 48 hrs by MTT assay; format: functional, cell-based; details: A549, 48 h
[21] = Toxicity in BALB/c mouse xenografted with human MCF7 cells assessed as lung damage at 5 mg/kg, ip administered once every two days for 3 weeks by H and E staining based microscopic analysis; format: organism-based; details: in vivo, 504 h
[22] = Toxicity in BALB/c mouse xenografted with human MCF7 cells assessed as liver damage at 5 mg/kg, ip administered once every two days for 3 weeks by H and E staining based microscopic analysis; format: organism-based; details: in vivo, 504 h
MCF7 [23] = experiment: Induction of apoptosis in human MCF7 cells assessed as upregulation of Bax expression incubated for 24 hrs by Western blot analysis; format: functional, cell-based; details: dose 1-4 µM
[24] = Toxicity in BALB/c mouse xenografted with human MCF7 cells assessed as liver damage at 10 mg/kg, ip administered once every two days for 3 weeks by H and E staining based microscopic analysis; format: organism-based; details: in vivo, 504 h
[25] = Toxicity in BALB/c mouse xenografted with human MCF7 cells assessed as spleen damage at 5 mg/kg, ip administered once every two days for 3 weeks by H and E staining based microscopic analysis; format: organism-based; details: in vivo, 504 h
MCF7 [26] = experiment: Induction of apoptosis in human MCF7 cells assessed as nucleus fragmentation upto 3 uM incubated for 48 hrs by Hoechst-33342 staining based fluorescent microscopic analysis; format: functional, cell-based
MCF7 [27] = experiment: Induction of apoptosis in human MCF7 cells assessed as necrotic cells at 1.5 uM incubated for 48 hrs by Annexin-V/PI staining based flow cytometry analysis (reference value: 0.0%); format: functional
MCF7 [28] = experiment: Induction of apoptosis in human MCF7 cells assessed as viable cells at 0.75 uM incubated for 48 hrs by Annexin-V/PI staining based flow cytometry analysis (reference value: 99.7%); format: functional; details: read-out: Activity
MCF7 [29] = experiment: Induction of apoptosis in human MCF7 cells assessed as downregulation of Bcl-2 expression incubated for 24 hrs by Western blot analysis; format: functional, cell-based; details: dose 1-4 µM
MCF7 [30] = experiment: Induction of apoptosis in human MCF7 cells assessed as early apoptotic cells at 3 uM incubated for 48 hrs by Annexin-V/PI staining based flow cytometry analysis (reference value: 0.3%); format: functional
MCF7 [31] = experiment: Induction of cell cycle arrest in human MCF7 cells assessed as S phase cells at 0.75 uM incubated for 24 hrs by PI/RNaseA staining based flow cytometry analysis (reference value: 22.2 %); format: functional
MCF7 [32] = experiment: Induction of ROS generation in human MCF7 cells at 0.1 uM incubated for 24 hrs by DCFH-DA staining based fluorescent microscopic analysis; format: functional, cell-based
MCF7 [33] = experiment: Induction of apoptosis in human MCF7 cells assessed as late apoptotic cells at 1.5 uM incubated for 48 hrs by Annexin-V/PI staining based flow cytometry analysis (reference value: 0.0%); format: functional
MCF7 [34] = experiment: Antiproliferative activity against human MCF7 cells assessed as NO release at 4 uM preincubated with PTIO for 2 hrs followed by compound addition and measured after 24 hrs by total nitric oxide assay; format: functional, cell-based

Structure (SMILES): COc1cc(-c2cc(C(=O)OCCCCCOc3no[n+]([O-])c3S(=O)(=O)c3ccccc3)c3ccccc3n2)cc(OC)c1OC
- Activity (MCF7 [1]): 65.47%
- Activity (MCF7 [2]): 19.12%
- Activity (MCF7 [3]): 1.2%
- Activity (MCF7 [4]): 58.98%
- Activity (MCF7 [5]): 20.71%
- Activity (MCF7 [6]): Active
- Activity (MCF7 [7]): Active
- IC50 (MCF7 [8]): 1450 nM
- IC50 (NCI/ADR-RES): 620 nM
- IC50 at 48 h [9]: 26900 nM
- Activity (MCF7 [10]): 13.2%
- Activity (MCF7 [11]): Dose-Dependent Effect
- viability at 1.5 µM (MCF7 [12]): 65.4%
- Activity (MCF7 [13]): Dose-Dependent Effect
- Activity (MCF7 [14]): Active
- Activity (MCF7 [15]): 10.62%
- Activity (MCF7 [16]): 61.5%
- Activity (MCF7 [17]): 66.79%
- Activity [18]: Non-Toxic
- Activity (MCF7 [19]): 17.82%
- Activity (MCF7 [20]): 23.52%
- IC50 (HCT-116): 2480 nM
- IC50 (A549): 2130 nM
- Activity [21]: Non-Toxic
- Activity [22]: Non-Toxic
- Activity (MCF7 [23]): Dose-Dependent Effect
- Activity [24]: Non-Toxic
- Activity [25]: Non-Toxic
- Activity (MCF7 [26]): Active
- Activity (MCF7 [27]): 3.3%
- viability at 0.75 µM (MCF7 [28]): 67.1%
- Activity (MCF7 [29]): Dose-Dependent Effect
- Activity (MCF7 [30]): 14.3%
- Activity (MCF7 [31]): 22.08%
- Activity (MCF7 [32]): Active
- Activity (MCF7 [33]): 18.1%
- Activity (MCF7 [34]): inactive
